What is called IC50 is the concentration needed to halve the response being measured.

What all share (type): biochemical
The target of assay [1] is T1, VIM-2 metallo β-lactamase (Pseudomonas aeruginosa, UniProt Q9K2N0).
T1 construct: made in house; host or cells: E. coli BL21(DE3)
The assay is described as follows: β-Lactamase inhibition enzyme assay, VIM-2. The conditions noted are these: Nitrocefin 100 μM as substrate, 486 nm; 15 min at 37° C. with enzyme, PBS pH 7.4; read-out: Class B VIM-2 IC50. The method, then:
(§1) For SHV-5, Kpc-2, p99AmpC and OXA-1 β-lactamases, E. coli BL21(DE3) bacterial cells carrying expression plasmids (expressed as native untagged proteins) for the individual β-lactamases were grown in 1 L of Superbroth (Teknova Inc. Hollister, Calif.) supplemented with 100 μg/ml kanamycin selection and 1×5052 (0.5% glycerol, 0.05% glucose and 0.2% α-lactose) at 35° C. for 18-20 hours. Cells were harvested by centrifugation (4,000×g, 4° C., 20 min), resuspended in 50 ml of 10 mM HEPES pH 7.5 ( 1/20 of the initial volume). The cells were lysed by sonication (5 pulses of 45 seconds) at 45 W on ice. The lysates were clarified by centrifugation at 10,000×g for 40 minutes at 4° C. Samples were diluted 5-fold in 50 mM sodium acetate pH 5.0, stored overnight at 4° C., after which they were centrifuged at 10,000×g for 30 minutes to clarify, and filtered through 0.45 μm filters. The samples were loaded onto a 5 ml Capto S sepharose cation exchange column (GE Healthcare) pre-equilibrated with 50 mM sodium acetate pH 5.0. The column was washed with 5 column volumes of 50 mM sodium acetate pH 5.0 to wash out unbound protein and a linear gradient of NaCl (0 to 500 mM) was used to elute the protein (over 16 CV) from the column. Fractions were assayed for β-lactamase activity using Centa (Calbiochem, Gibbstown, N.J.) or Nitrocefin (EMD Millipore chemicals, Darmstadt, Germany) as a reporter β-lactamase substrate for activity in the isolated fractions. Active fractions were pooled, concentrated and further purified by gel filtration chromatography on a Superdex 75 prep grade gel filtration column (GE Healthcare, Piscataway, N.J.) pre-equilibrated in 50 mM Hepes pH 7.5, 150 mM NaCl. Active fractions were pooled concentrated, quantitated by BCA protein determination (Thermo Scientific, Rockford, Ill.), dialyzed into PBS and frozen at −80° C. in 20% glycerol until use.
For Vim-2 metallo β-lactamase, the procedure was identical with the following exceptions, first the protein was not pH adjusted to pH 5 with 50 mM sodium acetate, second, the chromatography step was changed to a 5 ml Q sepharose anion exchange column pre-equilibrated with 50 mM Hepes pH 7.5, and elution of the protein was achieved by a linear gradient of NaCl (0-600 mM). Finally, the VIM-2 purification required a second run (3rd step) on the Q sepharose anion exchange column to achieve acceptable purity (>90%).
(§2) An equal volume of diluted enzyme stock was added, and the plates were incubated at 37° C. for 15 min. Nitrocefin was used as substrate for p99 AmpC, VIM-2 and OXA-1 and dispensed into each well at a final concentration of 100 μM. Absorbance at 486 nm was immediately monitored for 10 min using a Biotek Powerwave XS2 microplate spectrophotometer using the GEN5 softweare package (Biotek Instruments, Winooski Vt.). In an analogous fashion, imipenem was used as substrate for Kpc-2 and Cefotaxime was used for SHV-5, while changes in absorbance upon hydrolysis of the β-lactam ring were monitored at 300 nm and 260 nm respectively in UV-transparent 96-well microtiter assay plates. Maximum rates of hydrolysis were compared to those in control wells (without inhibitors), and percentages of enzyme inhibition were calculated for each concentration of inhibitor. The concentration of inhibitor needed to reduce the initial rate of hydrolysis of substrate by 50% (IC50) was calculated as the residual activity of β-lactamase at 486 nm using GraFit version 7 kinetics software package (Erithacus Software, Surrey, UK).

For another assay, the target named is T2, p99 AmpC β-lactamase (Enterobacter cloacae, UniProt P05364).
T2 construct: made in house; host or cells: E. coli BL21(DE3)
Description: β-Lactamase inhibition enzyme assay, p99 AmpC. The procedure:
as §1, §2

For another assay, the target named is T3, SHV-5 β-lactamase (Klebsiella pneumoniae, UniProt P0A3M1).
T3 construct: made in house; host or cells: E. coli BL21(DE3)
Description: β-Lactamase inhibition enzyme assay, SHV-5. The method, then: as §1, §2

The target in a further assay is T4, OXA-1 β-lactamase (Escherichia coli, UniProt P13661).
T4 construct: made in house; host or cells: E. coli BL21(DE3)
Description: β-Lactamase inhibition enzyme assay, OXA-1. Particulars: Nitrocefin 100 μM as substrate, 486 nm; 15 min at 37° C. with enzyme, PBS pH 7.4; read-out: Class D OXA-1 IC50. The method, then: as §1, §2

In the next assay the target is T5, KPC-2 β-lactamase (Klebsiella pneumoniae, UniProt Q9F663).
T5 construct: made in house; host or cells: E. coli BL21(DE3)
The assay is described as follows: β-Lactamase inhibition enzyme assay, KPC-2. The conditions noted are these: imipenem as substrate, 300 nm; 15 min at 37° C. with enzyme, PBS pH 7.4; read-out: Class A KPC-2 IC50. The method, then: as §1, §2

T4 sequence (P13661 26-276): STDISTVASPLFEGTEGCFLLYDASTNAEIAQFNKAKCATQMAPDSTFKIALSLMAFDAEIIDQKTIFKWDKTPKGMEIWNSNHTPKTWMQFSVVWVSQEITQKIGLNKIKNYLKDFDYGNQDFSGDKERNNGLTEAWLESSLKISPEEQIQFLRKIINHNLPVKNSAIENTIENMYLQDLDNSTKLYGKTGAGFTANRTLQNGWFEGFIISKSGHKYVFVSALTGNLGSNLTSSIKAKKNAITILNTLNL
T5 sequence (Q9F663 25-293, looked up): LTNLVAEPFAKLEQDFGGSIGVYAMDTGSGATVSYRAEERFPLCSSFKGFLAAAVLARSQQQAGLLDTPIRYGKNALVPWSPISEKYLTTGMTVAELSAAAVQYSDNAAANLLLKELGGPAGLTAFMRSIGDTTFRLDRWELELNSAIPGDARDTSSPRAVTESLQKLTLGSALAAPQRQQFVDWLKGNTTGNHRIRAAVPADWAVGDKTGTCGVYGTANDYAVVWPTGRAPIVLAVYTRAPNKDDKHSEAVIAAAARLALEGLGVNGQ
T3 sequence (P0A3M1 22-286): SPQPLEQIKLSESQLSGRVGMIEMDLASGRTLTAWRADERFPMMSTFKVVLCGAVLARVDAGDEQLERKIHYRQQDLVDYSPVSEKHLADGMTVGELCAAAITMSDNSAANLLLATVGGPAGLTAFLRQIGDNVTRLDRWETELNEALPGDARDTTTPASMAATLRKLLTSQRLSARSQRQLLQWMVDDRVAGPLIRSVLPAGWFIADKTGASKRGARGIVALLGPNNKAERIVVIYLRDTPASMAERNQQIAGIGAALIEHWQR
T2 sequence (P05364 21-381): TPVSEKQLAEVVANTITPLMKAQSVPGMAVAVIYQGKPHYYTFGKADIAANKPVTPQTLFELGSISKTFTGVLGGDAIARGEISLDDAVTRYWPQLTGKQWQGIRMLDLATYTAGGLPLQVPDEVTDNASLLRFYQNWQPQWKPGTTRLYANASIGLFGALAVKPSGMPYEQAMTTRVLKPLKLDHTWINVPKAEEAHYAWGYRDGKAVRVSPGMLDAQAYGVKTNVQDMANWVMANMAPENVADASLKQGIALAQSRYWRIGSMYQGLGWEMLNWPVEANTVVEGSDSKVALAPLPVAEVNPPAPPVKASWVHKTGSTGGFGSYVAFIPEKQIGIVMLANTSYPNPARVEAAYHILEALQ

For the compound `NC1=NCc2ccc(C(=O)N[C@H]3Cc4cccc(C(=O)O)c4OB3O)cc2CN1` [Example 17, (R)-3-(3-amino-4,5-dihydro-1H-benzo[e][1,3]diazepine-7-carboxamido)-2-hydroxy-3,4-dihydro-2H-benzo[e][1,2]oxaborinine-8-carboxylic acid], the IC50 (in assay [1]; against p99 AmpC β-lactamase; at SHV-5 β-lactamase; at OXA-1 β-lactamase; on KPC-2 β-lactamase) was under 100 nM throughout.
As to `CN(C)Cc1ccc(C(=O)N[C@H]2Cc3cccc(C(=O)O)c3OB2O)cc1N` [Example 18, (R)-3-(3-amino-4-((dimethylamino)methyl)benzamido)-2-hydroxy-3,4-dihydro-2H-benzo[e][1,2]oxaborinine-8-carboxylic acid], the IC50 in assay [1] is 100 to 1000 nM; on p99 AmpC β-lactamase it was under 100 nM; against SHV-5 β-lactamase, under 100 nM; at OXA-1 β-lactamase, under 100 nM; at KPC-2 β-lactamase it was under 100 nM.
Take `CNCc1ccc(C(=O)N[C@H]2Cc3cccc(C(=O)O)c3OB2O)cc1CNC` [Example 19, (R)-3-(3,4-bis((methylamino)methyl)benzamido)-2-hydroxy-3,4-dihydro-2H-benzo[e][1,2]oxaborinine-8-carboxylic acid]: the IC50 (in assay [1]; against p99 AmpC β-lactamase; against SHV-5 β-lactamase; on OXA-1 β-lactamase; on KPC-2 β-lactamase) was under 100 nM throughout.
In the case of `NCc1ccc(CC(=O)N[C@H]2Cc3cccc(C(=O)O)c3OB2O)cc1CN` [Example 20, (R)-3-(2-(3,4-bis(aminomethyl)phenyl)acetamido)-2-hydroxy-3,4-dihydro-2H-benzo[e][1,2]oxaborinine-8-carboxylic acid], the IC50 (in assay [1]; against p99 AmpC β-lactamase; against SHV-5 β-lactamase; on OXA-1 β-lactamase; at KPC-2 β-lactamase) was under 100 nM each time.
With `CN(C)Cc1ccc(C(=O)N[C@H]2Cc3cccc(C(=O)O)c3OB2O)cc1NC(=O)[C@@H](N)CN` [Example 21, (R)-3-(3-((S)-2,3-diaminopropanamido)-4-((dimethylamino)methyl)benzamido)-2-hydroxy-3,4-dihydro-2H-benzo[e][1,2]oxaborinine-8-carboxylic acid], the IC50 in assay [1] was under 100 nM; on p99 AmpC β-lactamase, under 100 nM; against SHV-5 β-lactamase, 100 to 1000 nM; at OXA-1 β-lactamase, under 100 nM; on KPC-2 β-lactamase it was under 100 nM.
In the case of `Cc1ccc(C(=O)N[C@H]2Cc3cccc(C(=O)O)c3OB2O)cc1NC(=O)[C@@H](N)CN` [Example 22, (R)-3-(3-((S)-2,3-diaminopropanamido)-4-methylbenzamido)-2-hydroxy-3,4-dihydro-2H-benzo[e][1,2]oxaborinine-8-carboxylic acid], the IC50 in assay [1] was 100 to 1000 nM; at p99 AmpC β-lactamase, under 100 nM; against SHV-5 β-lactamase, 1000 to 10000 nM; at OXA-1 β-lactamase, under 100 nM; on KPC-2 β-lactamase it was 100 to 1000 nM.
For the compound `Cc1ccc(C(=O)N[C@H]2Cc3cccc(C(=O)O)c3OB2O)cc1N` [Example 23, (R)-3-(3-amino-4-methylbenzamido)-2-hydroxy-3,4-dihydro-2H-benzo[e][1,2]oxaborinine-8-carboxylic acid], the half-maximal inhibitory concentration (IC50) in assay [1] is 100 to 1000 nM; against p99 AmpC β-lactamase, under 100 nM; at SHV-5 β-lactamase it was under 100 nM; on OXA-1 β-lactamase it was under 100 nM; on KPC-2 β-lactamase, under 100 nM.
Regarding `O=C(N[C@H]1Cc2cccc(C(=O)O)c2OB1O)c1ccc(-c2ccccn2)cc1` [Example 24, (R)-2-hydroxy-3-(4-(pyridin-2-yl)benzamido)-3,4-dihydro-2H-benzo[e][1,2]oxaborinine-8-carboxylic acid], the IC50 is 100 to 1000 nM in assay [1]; under 100 nM against p99 AmpC β-lactamase; under 100 nM on SHV-5 β-lactamase; under 100 nM on OXA-1 β-lactamase; under 100 nM on KPC-2 β-lactamase.
As for `N=C(N)NCc1ccc(C(=O)N[C@H]2Cc3cccc(C(=O)O)c3OB2O)cc1CNC(=N)N` [Example 25, (R)-3-(3,4-bis(guanidinomethyl)benzamido)-2-hydroxy-3,4-dihydro-2H-benzo[e][1,2]oxaborinine-8-carboxylic acid], the IC50 in assay [1] was under 100 nM; on p99 AmpC β-lactamase it was under 100 nM; against SHV-5 β-lactamase, 100 to 1000 nM; on OXA-1 β-lactamase it was 100 to 1000 nM; at KPC-2 β-lactamase it was under 100 nM.
In the case of `O=C(N[C@H]1Cc2cccc(C(=O)O)c2OB1O)c1ccc2[nH]ccc2c1` [Example 26, (R)-2-hydroxy-3-(1H-indole-5-carboxamido)-3,4-dihydro-2H-benzo[e][1,2]oxaborinine-8-carboxylic acid], the IC50 was 100 to 1000 nM in assay [1]; under 100 nM against p99 AmpC β-lactamase; under 100 nM against SHV-5 β-lactamase; under 100 nM at OXA-1 β-lactamase; under 100 nM at KPC-2 β-lactamase.
With `O=C(N[C@H]1Cc2cccc(C(=O)O)c2OB1O)c1ccc(-c2ccncc2)cc1` [Example 27, (R)-2-hydroxy-3-(4-(pyridin-4-yl)benzamido)-3,4-dihydro-2H-benzo[e][1,2]oxaborinine-8-carboxylic acid], the IC50 in assay [1] is 1000 to 10000 nM; against p99 AmpC β-lactamase, under 100 nM; against SHV-5 β-lactamase, under 100 nM; at OXA-1 β-lactamase it was under 100 nM; at KPC-2 β-lactamase, under 100 nM.
On to `O=C(N[C@H]1Cc2cccc(C(=O)O)c2OB1O)c1ccc2ncccc2c1` [Example 28, (R)-2-hydroxy-3-(quinoline-6-carboxamido)-3,4-dihydro-2H-benzo[e][1,2]oxaborinine-8-carboxylic acid], for which the IC50 in assay [1] was 1000 to 10000 nM; against p99 AmpC β-lactamase, under 100 nM; against SHV-5 β-lactamase, under 100 nM; at OXA-1 β-lactamase, under 100 nM; on KPC-2 β-lactamase, under 100 nM.
For the compound `O=C(N[C@H]1Cc2cccc(C(=O)O)c2OB1O)c1ccc2nccnc2c1` [Example 29, (R)-2-hydroxy-3-(quinoxaline-6-carboxamido)-3,4-dihydro-2H-benzo[e][1,2]oxaborinine-8-carboxylic acid], the IC50 in assay [1] was 1000 to 10000 nM; against p99 AmpC β-lactamase, under 100 nM; on SHV-5 β-lactamase it was under 100 nM; on OXA-1 β-lactamase, under 100 nM; on KPC-2 β-lactamase, under 100 nM.
Take `O=C(N[C@H]1Cc2cccc(C(=O)O)c2OB1O)c1ccc2cc[nH]c2c1` [Example 30, (R)-2-hydroxy-3-(1H-indole-6-carboxamido)-3,4-dihydro-2H-benzo[e][1,2]oxaborinine-8-carboxylic acid]: the IC50 in assay [1] was 100 to 1000 nM; at p99 AmpC β-lactamase it was under 100 nM; at SHV-5 β-lactamase, 100 to 1000 nM; on OXA-1 β-lactamase, under 100 nM; at KPC-2 β-lactamase it was under 100 nM.
Turning to `O=C(O)c1cccc2c1OB(O)[C@@H](NC(=O)c1cccc3cc[nH]c13)C2` [Example 31, (R)-2-hydroxy-3-(1H-indole-7-carboxamido)-3,4-dihydro-2H-benzo[e][1,2]oxaborinine-8-carboxylic acid], the IC50 is 1000 to 10000 nM in assay [1]; under 100 nM against p99 AmpC β-lactamase; 100 to 1000 nM at SHV-5 β-lactamase; under 100 nM at OXA-1 β-lactamase; under 100 nM at KPC-2 β-lactamase.

(Values after patent publication US9376454B2, “Beta-lactamase inhibitors” (priority 2013, dated 2016).)
